The values below come from paper PMC3836994, “Killer Bee Molecules: Antimicrobial Peptides as Effector Molecules to Target Sporogonic Stages of Plasmodium” (PLoS Pathogens, 2013).

Non-standard residues stand in square brackets, D forms with d. No end group written: not given here. pGlu = O=C1CC[C@@H](C(=O)O)N1

In data set [1] the test system is Anopheles gambiae Sua 4.0 cells. The experiment in a line: Sua 4.0 mosquito cell viability (erythrosin B exclusion). The format is cell-based. Set-up: dose or concentration left out as unconfirmed. The following applies: after 48 h culture; for Average viability of cells (3 replicates), peptide: erythrosin B exclusion, 100 cells in triplicate wells; for Reduction in cell viability: versus control. How it is done:
(§1) To establish potential effects of AMPs on mosquito cells, the An. gambiae Sua 4.0 cell line was used. This facilitated an initial high-throughput screening and provided insights into AMP toxicity, mode of action (lytic or other) and speed of action. Sua 4.0 cells were maintained at 27°C in Schneider's insect medium supplemented with 10% FBS (foetal bovine serum) in T25 culture flasks (Fisher, UK).
(§2) Each AMP was tested separately to establish if it affected cell viability and growth. […] Cells were maintained for 3, 6, 24 or 48 h, after which they were resuspended and a sub-sample from duplicate wells counted using a haemocytometer. To establish cell viability after 48 h (whether simply arrested in development or non-viable), resuspended cells were added to an equal volume of 5% erythrosin B vital dye and viable cells excluding the stain were counted. The viability of 100 cells in triplicate wells was recorded. Each AMP assay was performed in triplicate and included a negative control minus the peptide (5 µl of water alone added to the medium) and a further control of 5 µl of 10% SDS (sodium dodecyl sulphate) substituted for the AMP as this causes 100% cell lysis.

Data set [2] shares this test system. Description: Sua 4.0 mosquito cell growth (cell counts). The format is cell-based. The following applies: 25 µM AMP; for Average number of cells over 3 replicates, peptide: seeded 30×10^4/ml, mean of 3 experiments. As for the experimental part:
as §1, §2

A further data set relates to P. berghei ookinetes. Description: P. berghei ookinete viability in vitro (erythrosin B). The format is cell-based, Plasmodium berghei. The following applies: for Average ookinete viability (3 reps), peptide / Reduction in ookinete viability: 30 min; for Reduction in ookinete viability: versus control. As for the experimental part:
Our primary aim was to target parasites in mosquitoes before they cross the midgut wall, therefore AMPs were first assessed for their ability to kill ookinetes in vitro. […] Ookinete cultures of P. berghei were established from gametocytaemic blood as previously described. Parasites were enriched using cold 0.17M ammonium chloride after 18 h of culture and washed thoroughly with PBS (phosphate buffered saline). Parasites were seeded in triplicate wells of a 96-well microtitre plate at a density of 1×10^5/ml in a volume of 47.5 µl Schneider's insect medium (Invitrogen) with 2.5 µl of the test AMP (final concentration of 50 µM). Ookinetes were incubated for 30 min in conjunction with triplicate control wells containing medium with 2.5 µl of water instead of AMP. A sub-sample of parasites was then added to an equal volume of 5% erythrosin B to assess viability (150 ookinetes in total, taken from 3 wells). Each of the 33 AMPs was screened in this way and assays were performed 3 times. AMPs displaying a high degree of toxicity (>90% of ookinetes displaying erythrosin B staining) underwent further ookinete assays using a concentration of 100 µM AMP. To assess synergistic effects, combinations of two peptides were also tested at a concentration of 25 µM per AMP, in the assay described above.

In data set [3] the test system is An. gambiae (Mali strain). The experiment in a line: Mosquito longevity after blood feeds containing AMP. The format is in vivo, Anopheles gambiae. The following applies: for Significance of effect on longevity over 10 days: 50 µM AMP, Kaplan-Meier, Wilcoxon, peptide vs control; for Percent alive, peptide: over 10 days, 50 µM AMP in human blood, feeds on days 0 and 7, 3 or 4 replicates. How it is done:
(§3) Female An. gambiae (Mali strain, 3–5 days old) were used to establish the effects of AMPs on mosquito longevity and fecundity in the absence of confounding factors introduced with parasite infection. Two hundred 3–6 day old females were fed on human O+ whole blood supplemented with 50 µM AMP (or water control, 1 ml total volume) via feeding chambers of a Hemotek membrane feeding system. Fully engorged mosquitoes were randomly moved into four separate cages, each containing 25 mosquitoes, to facilitate monitoring. Mortality rates were recorded daily for a 10-day period, and oviposition sites were provided on the second and third night post-feeding. A second blood feed containing the same AMP was administered 7 days later to mimic the likelihood that mosquitoes would feed at least twice in the field during the development of sporogonic stages of the malaria parasite. Oviposition sites were again provided to assess fecundity through the number of eggs laid as an average per surviving mosquito. Assays for each AMP were repeated in triplicate on separate generations of mosquitoes. Due to egg retention under experimental conditions, egg production is best measured by dissecting mosquitoes that have not been provided with an oviposition site. However, this is not a feasible method of determining fecundity when longevity is also being measured.

Data set [4] concerns An. gambiae (Mali strain). Description: Mosquito oviposition after blood feed containing AMP. The format is in vivo, Anopheles gambiae. The following applies: for Significance of effect on oviposition: 50 µM AMP, one-way ANOVA, peptide vs control; for Mean no. of eggs laid per mosquito, peptide: after first feed with 50 µM AMP, eggs laid over two nights, averaged per surviving mosquito, 3 or 4 replicates. How it is done: as §3

The next data set has as its system P. berghei. The experiment in a line: P. berghei infections in Anopheles stephensi (oocyst prevalence and intensity). Format: in vivo, Plasmodium berghei. The following applies: for Prevalence (proportion of infected mosquitoes), peptide: 50 µM peptide in gametocytaemic mouse blood fed to An. stephensi; for Intensity (mean number of oocysts, range in parentheses), peptide: 50 µM peptide, An. stephensi. As for the experimental part:
To assess the effects of AMPs on parasites in vivo, mouse blood containing P. berghei gametocytes was obtained by cardiac puncture and 475 µl was rapidly mixed with 25 µl (50 µM final concentration) of AMP. This mixture was fed to 100 nulliparous 3–5 day old female An. stephensi. A further 475 µl of blood from the same infection was mixed with 25 µl of distilled water to act as a control. Mosquitoes were maintained at 19°C for optimum parasite development. Between 30 and 50 mosquitoes were dissected after 10 days. Mosquito wing length, numbers of retained eggs and oocysts were recorded in triplicate experiments carried out on different mosquito cohorts.

A further data set concerns P. falciparum. Description: Field P. falciparum from gametocyte carriers membrane-fed to An. gambiae (Mali). Format: in vivo, Plasmodium falciparum. The following applies: Replicate 1, 50 µM; for Oocyst prevalence (oocyst positive mosquitoes), peptide: blood of gametocyte carriers, progeny of field An. gambiae; for Oocyst intensity (mean number of oocysts per gut, range in parentheses), peptide: field parasites and mosquitoes. The source says: Nyaganabougou, a village approximately 60 km south-west of the Malian capital, Bamako, was used as a site for the source of donors of malaria-infected blood. Due to its proximity to the river Niger, which provides perennial mosquito breeding sites, Nyaganabougou has high numbers of infected individuals and an extended transmission season. Mosquitoes used to establish the An. gambiae Mali colony used for this study were originally collected in the village of Kenieroba (a distance of 15 km from Nyaganabougou). Potential male and female gametocyte carriers between the ages of 6–10 were screened by thick smear and parasite species and density determined by local staff, led by Saibou Doumbia.
Gametocyte carriers were taken to the Malaria Research and Training Centre at the University of Bamako for blood donation. Approximately 4 ml of blood was extracted from carriers and immediately divided into 3 Hemotek membrane feeders for testing 2 separate AMPs and one control for each carrier. Peptides were added to 950 µl of gametocytaemic blood for a final concentration of 50 µM. All parasite-positive individuals were subsequently treated appropriately for parasites and associated symptoms, as determined by, and carried out by, local health workers in Nyaganabougou.
Approximately 120 adult female An. gambiae (Mali, 4–7 days old) were starved overnight, and allowed to feed on the gametocytaemic blood/AMP mix for 30 min. Engorged females were maintained on 10% glucose with 0.05% PABA for 8 days before dissection. No oviposition sites were provided so that fecundity could be measured by determining retained eggs. Mosquito wing length, numbers of retained eggs and oocysts were recorded, and triplicate peptide experiments were carried out on different mosquito cohorts, using blood from different donors. Where possible, a minimum of 50 mosquitoes were dissected for each condition.

Setting [5] is: 50 µM of single peptide, n = 150 ookinetes per treatment per replicate.

Turning to `CC[C@H](C)[C@H](N)C(=O)N[C@@H](CC(C)C)C(=O)N1CCC[C@H]1C(=O)N[C@@H](Cc1c[nH]c2ccccc12)C(=O)N[C@@H](CCCCN)C(=O)N[C@@H](Cc1c[nH]c2ccccc12)C(=O)N1CCC[C@H]1C(=O)N[C@@H](Cc1c[nH]c2ccccc12)C(=O)N[C@@H](Cc1c[nH]c2ccccc12)C(=O)N1CCC[C@H]1C(=O)N[C@@H](Cc1c[nH]c2ccccc12)C(=O)N[C@@H](CCCNC(=N)N)C(=O)N[C@@H](CCCNC(=N)N)C(N)=O` [Indolicidin], in data set [1], the “Average viability of cells (3 replicates), peptide” value is recorded as 61% and the “Reduction in cell viability” value amounted to 36%.

Regarding “CKQSCSFGPFTFVCDGNTK (also: bicyclic or more (positions not given here)) [Duramycin, A lantibiotic from bacteria, 19 aa (Sigma D3168)]”, the “Reduction in cell number (compared to control)” value is 42% in data set [2] (3 hrs in culture), 73% in data set [2] (24 hrs in culture) and 88% in data set [2] (48 hrs in culture). Besides, the “Average number of cells over 3 replicates, peptide” value in data set [2] (3 hrs in culture, haemocytometer count of duplicate wells) worked out at 180000 mL⁻¹; in data set [2] (24 hrs in culture), 130000 mL⁻¹; in data set [2] (48 hrs in culture) it was 90000 mL⁻¹. Further, the “Average viability of cells (3 replicates), peptide” value in data set [1] is recorded as 0%. In data set [1], the “Reduction in cell viability” value came to 100%. For the same molecule, the “Average ookinete viability (3 reps), peptide” value (“Average ookinete viability” below) with P. berghei ookinetes (setting [5]) stood at 11%; in the data set with P. berghei ookinetes (100 µM of single peptide), 1%. The “Reduction in ookinete viability” value in the data set with P. berghei ookinetes (50 µM of single peptide) stood at 88%; in the data set on P. berghei ookinetes (100 µM of single peptide), 99%. For the same molecule, the “Significance of effect on longevity over 10 days” value in data set [3] is reported as “N/S”. Also, the “Percent alive, peptide” value in data set [3] worked out at 84%. For the same molecule, the “Significance of effect on oviposition” value in data set [4] is “N/S”. In addition, in data set [4], the “Mean no. of eggs laid per mosquito, peptide” value is given as 39. Moreover, the “Prevalence (proportion of infected mosquitoes), peptide” value was 80% (50) in the data set on P. berghei (Replicate 1), 88% (50) in the data set with P. berghei (Replicate 2) and 98% (50) in the data set on P. berghei (Replicate 3). Also, the “Intensity (mean number of oocysts, range in parentheses), peptide” value is on record as 17 (0–114) in the data set on P. berghei (Replicate 1), 59 (0–294) in the data set with P. berghei (Replicate 2) and 135 (0–319) in the data set on P. berghei (Replicate 3).

Consider “GLLKRIKTLL [Anoplin, 10 aa peptide isolated from the solitary wasp, homology to Mastoparan X]”, for which the “Average ookinete viability” value with P. berghei ookinetes (setting [5]) is recorded as 10%. For the same molecule, the “Reduction in ookinete viability” value in the data set on P. berghei ookinetes (50 µM of single peptide) came to 89%. In the data set with P. berghei ookinetes (100 µM of single peptide), the “Average ookinete viability” value is reported as 2% and the “Reduction in ookinete viability” value is 98%. In data set [3], the “Significance of effect on longevity over 10 days” value is listed as “N/S” and the “Percent alive, peptide” value is 80%. For the same molecule, in data set [4], the “Significance of effect on oviposition” value was “N/S” and the “Mean no. of eggs laid per mosquito, peptide” value amounted to 36. Also, in the data set on P. berghei (Replicate 1), the “Prevalence (proportion of infected mosquitoes), peptide” value is 66% (44) and the “Intensity (mean number of oocysts, range in parentheses), peptide” value is recorded as 21 (0–147). In the data set with P. berghei (Replicate 2), the “Prevalence (proportion of infected mosquitoes), peptide” value is 98% (50) and the “Intensity (mean number of oocysts, range in parentheses), peptide” value is listed as 74 (0–580). In addition, in the data set on P. berghei (Replicate 3), the “Prevalence (proportion of infected mosquitoes), peptide” value was 100% (50) and the “Intensity (mean number of oocysts, range in parentheses), peptide” value is 177 (1–666).

In the case of “RRWQWRMKKLG [Lactoferricin B, Product of pepsin cleavage of bovine lactoferrin]”, in the data set on P. falciparum, the “Oocyst prevalence (oocyst positive mosquitoes), peptide” value was 46% (37) and the “Oocyst intensity (mean number of oocysts per gut, range in parentheses), peptide” value is given as 2 (0–17).

As to Scorpine, the “Efficacy against malaria parasites (in words)” value in the data set on P. berghei ookinetes (in our hands, rodent or human malaria, test not specified further, actual concentration may have been lower than expected) is given as “not effective against rodent or human malaria”.

Take “[pGlu]GMIGTLTSKRIKQ [Levitide, Isolated from skin secretions of Xenopus laevis]”: in the data set with P. falciparum, the “Oocyst prevalence (oocyst positive mosquitoes), peptide” value was 8% (60) and the “Oocyst intensity (mean number of oocysts per gut, range in parentheses), peptide” value is on record as <1 (0–1).
